In brackets after ≈: the same amount, converted by molar mass.
Columns and labels:
Human alphaherpesvirus 1 = experiment: Compound was tested for antimicrobial activity against HSV type 1; format: functional
Human alphaherpesvirus 2 = experiment: Compound was tested for antimicrobial activity against HSV type 2; format: functional
Streptococcus pyogenes [1] = experiment: Compound was tested for antimicrobial activity against […] pyogenes 308 A; format: functional
Streptococcus pyogenes [2] = experiment: Compound was tested for antimicrobial activity against Streptococcus pyogenes 77A; format: functional, […] pyogenes
Staphylococcus aureus [3] = experiment: Compound was tested for antimicrobial activity against Staphylococcus aureus 285
Staphylococcus aureus [4] = experiment: Compound was tested for antimicrobial activity against Staphylococcus aureus 503
[5] = (§1) Maximum tolerated dose (MTD) of the compound; format: functional; conditions: herpes simplex virus
Staphylococcus aureus [6] = experiment: Compound was tested for antimicrobial activity against Staphylococcus aureus SG511
herpes simplex virus = experiment: as §1; format: functional

Structure (SMILES)	MIC (Human alphaherpesvirus 1) [µg/mL]	MIC (Human alphaherpesvirus 2) [µg/mL]	MIC (Streptococcus pyogenes [1]) [µg/mL]	MIC (Streptococcus pyogenes [2]) [µg/mL]	MIC (Staphylococcus aureus [3]) [µg/mL]	MIC (Staphylococcus aureus [4]) [µg/mL]	MTD [5] [µg/mL]	MIC (Staphylococcus aureus [6]) [µg/mL]	MTD (herpes simplex virus) [µg/mL]
CO[C@@H]1C[C@@H](C[C@H]2CC[C@H](C)[C@H]([C@@H](C)C(=O)O)O2)OC2(O[C@](C)([C@H]3CC[C@@](C)([C@@H]4O[C@@H]([C@H]5O[C@@](O)(COC(=O)C(C)C)[C@H](C)C[C@@H]5C)C[C@@H]4C)O3)C[C@H]2C)[C@@H]1C (stereo partly specified)	< 0.02	< 0.02	0.049 (≈ 0.0616 µM)	0.049 (≈ 0.0616 µM)	0.39 (≈ 0.491 µM)	0.19 (≈ 0.239 µM)	1.4	0.39 (≈ 0.491 µM)	
CO[C@@H]1C[C@@H](C[C@H]2CC[C@H](C)[C@H]([C@@H](C)CO)O2)OC2(O[C@](C)([C@H]3CC[C@@](C)([C@@H]4O[C@@H]([C@H]5O[C@](COC(=O)C(C)C)(OC)[C@H](C)C[C@@H]5C)C[C@@H]4C)O3)C[C@H]2C)[C@@H]1C (stereo partly specified)	> 400	> 400	> 100	> 100	> 100	> 100	> 400	> 100	
CO[C@@H]1C[C@@H](C[C@H]2CC[C@H](C)[C@H]([C@@H](C)CO)O2)OC2(O[C@](C)([C@H]3CC[C@@](C)([C@@H]4O[C@@H]([C@H]5O[C@@](O)(CO)[C@H](C)C[C@@H]5C)C[C@@H]4C)O3)C[C@H]2C)[C@@H]1C (stereo partly specified)	< 0.18	< 0.18	1.56 (≈ 2.19 µM)	1.56 (≈ 2.19 µM)	6.25 (≈ 8.79 µM)	3.13 (≈ 4.4 µM)	14.8	> 100	
CO[C@@H]1C[C@@H](C[C@H]2CC[C@H](C)[C@H]([C@@H](C)CO)O2)OC2(O[C@](C)([C@H]3CC[C@@](C)([C@@H]4O[C@@H]([C@@H](O)[C@@H](C)C[C@@H](C)CO)C[C@@H]4C)O3)C[C@H]2C)[C@@H]1C (stereo partly specified)	40 (≈ 58.6 µM)	133 (≈ 195 µM)	1.56 (≈ 2.28 µM)	50 (≈ 73.2 µM)	3.13 (≈ 4.58 µM)	1.56 (≈ 2.28 µM)	40	6.25 (≈ 9.15 µM)	
CO[C@@H]1C[C@@H](C[C@H]2CC[C@H](C)[C@H]([C@@H](C)C(=O)O)O2)OC2(O[C@](C)([C@H]3CC[C@@](C)([C@@H]4O[C@@H]([C@H]5OC(=O)[C@H](C)C[C@@H]5C)C[C@@H]4C)O3)C[C@H]2C)[C@@H]1C (stereo partly specified)	4.44 (≈ 6.41 µM)	13.3 (≈ 19.2 µM)	25 (≈ 36.1 µM)	25 (≈ 36.1 µM)	50 (≈ 72.2 µM)	50 (≈ 72.2 µM)	40	50 (≈ 72.2 µM)	
CO[C@@H]1C[C@@H](C[C@H]2CC[C@H](C)[C@H]([C@@H](C)CO)O2)OC2(O[C@](C)([C@H]3CC[C@@](C)([C@@H]4O[C@@H]([C@H]5O[C@@](O)(COC(=O)C(C)C)[C@H](C)C[C@@H]5C)C[C@@H]4C)O3)C[C@H]2C)[C@@H]1C (stereo partly specified)	0.49 (≈ 0.627 µM)	0.49 (≈ 0.627 µM)	3.13 (≈ 4.01 µM)	12.5 (≈ 16 µM)	6.25 (≈ 8 µM)	3.13 (≈ 4.01 µM)		12.5 (≈ 16 µM)	
CO[C@@H]1C[C@@H](C[C@H]2CC[C@H](C)[C@H]([C@@H](C)C(=O)O)O2)OC2(O[C@](C)([C@H]3CC[C@@](C)([C@@H]4O[C@@H]([C@H]5O[C@@](O)(CO)[C@H](C)C[C@@H]5C)C[C@@H]4C)O3)C[C@H]2C)[C@@H]1C (stereo partly specified)	< 0.02	0.05 (≈ 0.069 µM)	0.025 (≈ 0.0345 µM)	0.013 (≈ 0.0179 µM)	0.098 (≈ 0.135 µM)	0.098 (≈ 0.135 µM)	1.4	0.098 (≈ 0.135 µM)	
CO[C@@H]1C[C@@H](C[C@H]2CC[C@H](C)[C@H]([C@@H](C)CCl)O2)OC2(O[C@](C)([C@H]3CC[C@@](C)([C@@H]4O[C@@H]([C@H]5O[C@@](O)(CCl)[C@H](C)C[C@@H]5C)C[C@@H]4C)O3)C[C@H]2C)[C@@H]1C (stereo partly specified)	0.02 (≈ 0.0267 µM)	< 0.02	0.098 (≈ 0.131 µM)	0.78 (≈ 1.04 µM)	0.39 (≈ 0.521 µM)	0.098 (≈ 0.131 µM)		0.39 (≈ 0.521 µM)	14.8
CO[C@@H]1C[C@@H](C[C@H]2CC[C@H](C)[C@H]([C@@H](C)C(=O)O)O2)OC2(O[C@](C)([C@H]3CC[C@@](C)([C@@H]4O[C@@H]([C@H]5O[C@](COC(=O)C(C)C)(OC)[C@H](C)C[C@@H]5C)C[C@@H]4C)O3)C[C@H]2C)[C@@H]1C (stereo partly specified)	> 400	> 400	25 (≈ 30.9 µM)	> 100	100 (≈ 124 µM)	25 (≈ 30.9 µM)	> 400	> 100	
CO[C@@H]1C[C@@H](C[C@H]2CC[C@H](C)[C@H]([C@@H](C)COC(=O)C(C)C)O2)OC2(O[C@](C)([C@H]3CC[C@@](C)([C@@H]4O[C@@H]([C@H]5O[C@@](O)(CO)[C@H](C)C[C@@H]5C)C[C@@H]4C)O3)C[C@H]2C)[C@@H]1C (stereo partly specified)	> 400	> 400	> 100	> 100	> 100	> 100	> 400	> 100	
CO[C@@H]1C[C@@H](C[C@H]2CC[C@H](C)[C@H]([C@@H](C)C(=O)OCOCC[Si](C)(C)C)O2)OC2(O[C@](C)([C@H]3CC[C@@](C)([C@@H]4O[C@@H]([C@H]5O[C@](COCOCC[Si](C)(C)C)(OCOCC[Si](C)(C)C)[C@H](C)C[C@@H]5C)C[C@@H]4C)O3)C[C@H]2C)[C@@H]1C (stereo partly specified)	4.44 (≈ 3.98 µM)	13.3 (≈ 11.9 µM)	> 100	> 100	> 100	> 100		> 100	> 40
CO[C@@H]1C[C@@H](C[C@H]2CC[C@H](C)[C@H]([C@@H](C)C(=O)O)O2)OC2(O[C@](C)([C@H]3CC[C@@](C)([C@@H]4O[C@@H]([C@H]5O[C@](CO)(OC)[C@H](C)C[C@@H]5C)C[C@@H]4C)O3)C[C@H]2C)[C@@H]1C (stereo partly specified)	0.02 (≈ 0.0271 µM)	0.5 (≈ 0.677 µM)	0.39 (≈ 0.528 µM)	0.39 (≈ 0.528 µM)	1.56 (≈ 2.11 µM)	1.56 (≈ 2.11 µM)	4.4	1.56 (≈ 2.11 µM)	
CO[C@@H]1C[C@@H](C[C@H]2CC[C@H](C)[C@H]([C@@H](C)CO)O2)OC2(O[C@](C)([C@H]3CC[C@@](C)([C@@H]4O[C@@H]([C@H]5O[C@](CO)(OC)[C@H](C)C[C@@H]5C)C[C@@H]4C)O3)C[C@H]2C)[C@@H]1C (stereo partly specified)	4.94 (≈ 6.81 µM)	0.5 (≈ 0.69 µM)	> 100	> 100	> 100	> 100	14.5	> 100	
CO[C@@H]1C[C@@H](C[C@H]2CC[C@H](C)[C@H]([C@@H](C)CO)O2)OC2(O[C@](C)([C@H]3CC[C@@](C)([C@@H]4O[C@@H]([C@H]5O[C@](COCOCC[Si](C)(C)C)(OCOCC[Si](C)(C)C)[C@H](C)C[C@@H]5C)C[C@@H]4C)O3)C[C@H]2C)[C@@H]1C (stereo partly specified)	> 400	> 400	50 (≈ 51.5 µM)	50 (≈ 51.5 µM)	> 100	> 100		> 100	> 400

Reference: ChEMBL document CHEMBL1126264, “Secondary metabolites by chemical screening. 17. Nigericinol derivatives: synthesis, biological activities, and modeling studies” (1992)
